Among the data in patent US20050209278A1, “Piperidinyl- and piperazinyl-sulfonylmethyl hydroxamic acids and their use as protease inhibitors” (priority 2002, published 2005) are Ki values, retold here.

This experiment concerns the target T1, MMP-1 (Homo sapiens, UniProt P03956).
T1 construct: made in house; host or cells: MMP-1-transfected HT-1080 cells (spent media)
T1 sequence (P03956 100-469): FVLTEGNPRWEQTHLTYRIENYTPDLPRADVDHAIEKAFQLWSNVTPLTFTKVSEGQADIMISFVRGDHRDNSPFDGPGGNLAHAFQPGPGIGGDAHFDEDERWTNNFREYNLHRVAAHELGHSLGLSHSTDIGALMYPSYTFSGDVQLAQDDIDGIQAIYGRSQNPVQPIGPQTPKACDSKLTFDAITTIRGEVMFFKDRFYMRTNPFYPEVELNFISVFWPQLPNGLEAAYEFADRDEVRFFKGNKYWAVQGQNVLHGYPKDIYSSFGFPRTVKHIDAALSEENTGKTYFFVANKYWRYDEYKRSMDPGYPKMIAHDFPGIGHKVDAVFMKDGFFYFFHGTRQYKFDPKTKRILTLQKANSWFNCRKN
The experiment is described as follows: In vitro MMP inhibition, Ki determination (fluorogenic substrate II). It counts as biochemical. To be noted: value outside parentheses; read-out: MMP-1 Ki.
For the molecule `CCCCc1ccc(C2CCN(S(=O)(=O)C3(C(=O)NO)CCN(CCOC)CC3)CC2)nc1` [Example 397], the Ki (usually a measure of affinity in units of concentration, obtained from inhibition or displacement) is above 10 µM. For `O=C(NO)C1(S(=O)(=O)N2CCC(c3ccc(OCc4ccccc4)cn3)CC2)CCOCC1` [Example 398] the value was 1.95 µM; for `CCCC#Cc1cnc(N2CCN(S(=O)(=O)C3(C(=O)NO)CCOCC3)CC2)s1` [Example 400], 3.32 µM; for `CCCCCC/C=C\C1CCN(S(=O)(=O)C2(C(=O)NO)CCOCC2)CC1` [Example 401], above 10 µM.

Regarding `CCCCCC/C=C/C1CCN(S(=O)(=O)C2(C(=O)NO)CCOCC2)CC1` [Example 402], the Ki worked out at 3.65 µM. As to `O=C(NO)C1(S(=O)(=O)N2CCC(COCc3ccc(C(F)(F)F)cc3)CC2)CCOCC1` [Example 403], the Ki was above 10 µM.

Take `O=C(NO)C1(S(=O)(=O)N2CCC(COCc3ccc(OC(F)(F)F)cc3)CC2)CCOCC1` [Example 404]: the Ki was above 10 µM. To `O=C(NO)C1(S(=O)(=O)N2CCC(COCc3ccc(SC(F)(F)F)cc3)CC2)CCOCC1` [Example 405] belongs 8.32 µM; to `CCCCCCCOC1CCN(S(=O)(=O)C2(C(=O)NO)CCOCC2)CC1` [Example 406], 9.01 µM; to `O=C(NO)C1(S(=O)(=O)N2CCC(c3ccc(-c4cccs4)c(F)c3)CC2)CCOCC1` [Example 407], above 10 µM.

With `O=C(NO)C1(S(=O)(=O)N2CCC(c3ccc(N4CCCC4)cn3)CC2)CCOCC1` [Example 408], the Ki was above 10 µM. For `O=C(NO)C1(S(=O)(=O)N2CCC(c3ccc(-c4ccccn4)cn3)CC2)CCOCC1` [Example 409] the value was above 10 µM. For `CCCCOc1ccc(C2CCN(S(=O)(=O)C3(C(=O)NO)CCOCC3)CC2)nc1` [Example 410] the value was 3.49 µM; for `CCC(F)(F)CCc1ccc(C2CCN(S(=O)(=O)C3(C(=O)NO)CCOCC3)CC2)cn1` [Example 411], above 10 µM. With `Cc1ccc(-c2csc(N3CCN(S(=O)(=O)C4(C(=O)NO)CCOCC4)CC3)n2)cc1` [Example 412], the inhibition constant Ki is above 10 µM. As for `Cc1cccc(-c2csc(N3CCN(S(=O)(=O)C4(C(=O)NO)CCOCC4)CC3)n2)c1` [Example 413], the Ki was above 10 µM. Regarding `O=C(NO)C1(S(=O)(=O)N2CCN(c3nc(-c4ccccc4)cs3)CC2)CCOCC1` [Example 415], the Ki is above 10 µM.

`Cc1ccc(-c2ccc(C3CCN(S(=O)(=O)C4(C(=O)NO)CCOCC4)CC3)nc2)s1` [Example 416]: the Ki was 6.42 µM. To `O=C(NO)C1(S(=O)(=O)N2CCC(c3ccc(-c4cccc(F)c4)cn3)CC2)CCOCC1` [Example 417] belongs 1.83 µM; to `O=C(NO)C1(S(=O)(=O)N2CCC(c3ccc(OCCC(F)(F)F)cn3)CC2)CCOCC1` [Example 418], 3.08 µM; to `O=C(NO)C1(S(=O)(=O)N2CCN(c3ccc(-c4nn[nH]n4)cc3)CC2)CCOCC1` [Example 419], above 10 µM.

Take `CCCCc1ccc(C2(O)CCN(S(=O)(=O)C3(C(=O)NO)CCOCC3)CC2)nc1` [Example 420]: the Ki was above 10 µM.
